The solubility is the dissolved amount per volume that the medium holds. Read a low solubility as little dissolved substance.

Common to all, as to type: physicochemical
Data set [1] in a line: Storage stability: chemical purity by HPLC/UV. The note with it: for Chemical purity ([area-%] at λ=230 nm): 40°C/75% rh. The protocol:
(§1) Samples were stored in closed and open containers at 25°C/60% rh and at 40°C/75% rh and analyzed after 4, 8 and 12 weeks.
The results of determination of the chemical purity during storage at 40°C/75% rh are summarized. […] Therefore, the analysis of samples, which were stored at 25°C/60% rh, was omitted.

The nature of data set [2]: Dynamic vapor sorption experiment (hygroscopicity). The conditions noted are these: 25°C, reducing humidity to 0% and increasing to 40%. The protocol: Vapour sorption experiments were performed in the instrument SPSx-1µ (Projekt Messtechnik, Ulm, Germany) at temperature of 25°C and the humidity cycles as shown below.
A dynamic vapor sorption experiment was performed with Ruxolitinib besylate. At a constant temperature of 25°C, the substance was exposed to two cycles of varying relative humidity (rh) (40% → 0% →95% (75% r.h. kept constant for 48h) → 0% →40%). Figure 3a presents the relative weight change as a function of time and relative humidity and in […] changes are illustrated as a function of humidity.

Data set [3] can be described thus: pH-dependency of solubility at 37°C. The conditions noted are these: for solubility: 37°C. An excerpt:
The intestinal tract obeys different pH ranges, which vary from pH 1 to 2 of the empty stomach, pH 3-5 for stomach filled with chyme, to pH 5-7.5 of the colon.

Data set [4] is described as follows: Storage stability: solid-state stability by XRPD analysis. The procedure:
The sample was analyzed on a D8 Advance X-ray powder diffractometer (Bruker-AXS, Karlsruhe, Germany). The sample holder was rotated in a plane parallel to its surface at 20 rpm during the measurement. The raw data were analyzed with the program EVA (Bruker-AXS, Germany). The samples were layered onto a silicon specimen holder.
as §1
The solid-state stability was investigated by XRPD analysis for 25°C/60% rh. The results of evaluation are summarized.

For the compound `N#CC[C@H](C1CCCC1)n1cc(-c2ncnc3[nH]ccc23)cn1` [Ruxolitinib besylate, Ruxolitinib benzenesulfonate], in data set [1] (40°C/75% rh, 4, 8 and 12 weeks), the “chemical stability during storage (in words)” value is “remained chemically stable”. The “Chemical purity ([area-%] at λ=230 nm)” value in data set [1] (closed container, 4 weeks) is given as 98.14% area-%; in data set [1] (closed container, 8 weeks) it was 98.27% area-%; in data set [1] (closed container, 12 weeks), 98.06% area-%; in data set [1] (closed container, t = 00 (= initial)) it was 98.16 area-%; in data set [1] (open container, 4 weeks) it was 98.16% area-%; in data set [1] (open container, 8 weeks) it was 98.21% area-%. The “Chemical purity ([area-%] at λ=230 nm)” value in data set [1] (open container, 12 weeks) amounted to 98.22% area-%; in data set [1] (open container, t = 00 (= initial)), 98.16 area-%. Besides, in data set [2], the “weight after desorption and re-sorption (in words)” value is “resulted in the initial starting weight”. Further, the solubility at 0.5 h in data set [3] (0.1m hcl, pH 1.2, 37°C, 0.1M HCl pH1.2, 0.5 h) came out at 9600 µg/mL; in data set [3] (50mm kh2po4, pH 6.8, 37°C, 50mM KH2PO4 pH 6.8, 0.5 h), 6800 µg/mL. Also, the solubility at 1 h in data set [3] (0.1m hcl, pH 1.2, 37°C, 0.1M HCl pH1.2, 1 h) was 9600 µg/mL; in data set [3] (20mm naoac, pH 4.5, 37°C, 20mM (NaOAc / NaAc) -pH 4.5, 1 h), 7100 µg/mL; in data set [3] (50mm kh2po4, pH 6.8, 37°C, 50mM KH2PO4 pH 6.8, 1 h) it was 7000 µg/mL. The solubility at 24 h in data set [3] (0.1m hcl, pH 1.2, 37°C, 0.1M HCl pH1.2, 24 h) was determined as 9300 µg/mL. The solubility in data set [3] (20mM (NaOAc / NaAc) -pH 4.5, 0.5 h) is 6700 µg/mL; in data set [3] (20mM (NaOAc / NaAc) -pH 4.5, 24 h) it was 6100 µg/mL; in data set [3] (50mM KH2PO4 pH 6.8, 24 h) it was 5800 µg/mL. Moreover, the “stability upon storage (in words)” value in data set [4] (25°C and 60% relative humidity (RH), up to at least 12 weeks) was “stable”. The “solid-state stability by XRPD (in words)” value in data set [4] (25°C/60% rh, throughout the observation period) was “remained unchanged”.

Values taken from patent publication EP3183253B1, “SALT OF (R)-3-(4-(7H-PYRROLO [2,3-D]PYRIMIDIN-4-YL)-LH-PYRAZOL-L-YL)-3-CYCLOPENTYLPROPANENITRILE WITH BENZENESULFONIC ACID” (ratiopharm GmbH, priority 2014, dated 2016).
